Data: US9056874B2, “Complement pathway modulators and uses thereof” (NOVARTIS AG, priority 2012, dated 2015)

Target: factor B (Homo sapiens, UniProt P00751)
Assay: factor B inhibition assay of Biological Example 1
Type: biochemical
Set-up: CVF-Bb complex prepared from purified cobra venom factor (1 μM), recombinant human complement factor B; made in house; host or cells: drosophila cells (factor B); E. coli (factor D used to form the complex)
Details: IC50 (nM), assay of Biological Example 1 (Table 1)

factor B, sequence (P00751 260-764 limits assumed): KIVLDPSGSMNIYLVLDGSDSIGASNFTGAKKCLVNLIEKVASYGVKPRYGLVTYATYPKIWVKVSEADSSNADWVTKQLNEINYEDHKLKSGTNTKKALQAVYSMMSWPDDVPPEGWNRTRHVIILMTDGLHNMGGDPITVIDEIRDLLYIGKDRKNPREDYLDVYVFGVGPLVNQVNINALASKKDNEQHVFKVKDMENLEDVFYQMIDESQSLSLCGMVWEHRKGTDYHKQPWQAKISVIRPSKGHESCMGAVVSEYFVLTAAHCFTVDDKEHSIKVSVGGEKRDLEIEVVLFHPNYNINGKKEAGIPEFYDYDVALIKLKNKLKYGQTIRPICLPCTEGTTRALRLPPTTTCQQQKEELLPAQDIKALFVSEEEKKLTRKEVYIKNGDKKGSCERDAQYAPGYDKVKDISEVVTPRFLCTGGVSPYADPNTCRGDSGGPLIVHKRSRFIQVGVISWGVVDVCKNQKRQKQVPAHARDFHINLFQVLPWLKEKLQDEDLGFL
factor B, sequence (Q91132 23-649 partner limits assumed): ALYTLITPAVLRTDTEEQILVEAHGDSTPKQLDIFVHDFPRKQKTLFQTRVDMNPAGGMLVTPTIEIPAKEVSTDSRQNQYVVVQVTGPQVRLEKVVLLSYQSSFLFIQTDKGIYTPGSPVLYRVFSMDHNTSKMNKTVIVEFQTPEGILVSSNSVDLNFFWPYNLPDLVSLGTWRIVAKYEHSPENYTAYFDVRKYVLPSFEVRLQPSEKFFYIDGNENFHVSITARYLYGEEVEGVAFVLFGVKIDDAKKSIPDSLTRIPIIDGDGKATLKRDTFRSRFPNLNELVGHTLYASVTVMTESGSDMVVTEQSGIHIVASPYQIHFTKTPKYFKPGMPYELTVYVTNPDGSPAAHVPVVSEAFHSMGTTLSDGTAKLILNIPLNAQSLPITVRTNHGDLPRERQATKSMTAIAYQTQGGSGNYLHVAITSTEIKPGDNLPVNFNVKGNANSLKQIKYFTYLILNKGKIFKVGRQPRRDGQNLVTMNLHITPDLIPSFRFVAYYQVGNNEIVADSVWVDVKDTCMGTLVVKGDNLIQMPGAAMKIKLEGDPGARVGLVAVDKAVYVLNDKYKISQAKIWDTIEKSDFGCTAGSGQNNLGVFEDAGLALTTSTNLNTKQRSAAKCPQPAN
factor B, sequence (Q91132 733-984 partner limits assumed): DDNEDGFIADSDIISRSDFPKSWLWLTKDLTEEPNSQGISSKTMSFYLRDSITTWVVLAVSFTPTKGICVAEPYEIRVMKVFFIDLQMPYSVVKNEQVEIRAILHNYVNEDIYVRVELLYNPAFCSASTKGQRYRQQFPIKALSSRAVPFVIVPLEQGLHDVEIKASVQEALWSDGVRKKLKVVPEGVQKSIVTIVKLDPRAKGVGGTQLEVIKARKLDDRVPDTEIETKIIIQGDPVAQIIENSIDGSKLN
factor B, sequence (Q91132 1264-1642 partner limits assumed): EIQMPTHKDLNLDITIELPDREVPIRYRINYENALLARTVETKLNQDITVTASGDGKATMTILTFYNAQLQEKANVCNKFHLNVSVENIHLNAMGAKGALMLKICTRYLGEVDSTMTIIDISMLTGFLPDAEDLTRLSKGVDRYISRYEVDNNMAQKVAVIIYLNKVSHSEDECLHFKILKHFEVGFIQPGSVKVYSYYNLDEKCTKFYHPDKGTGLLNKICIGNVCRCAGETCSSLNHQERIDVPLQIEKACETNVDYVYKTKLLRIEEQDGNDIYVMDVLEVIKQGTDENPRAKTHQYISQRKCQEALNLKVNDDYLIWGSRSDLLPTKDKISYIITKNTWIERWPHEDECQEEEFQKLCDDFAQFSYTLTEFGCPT

Structure (SMILES)	IC50
Cc1cc(OC(F)F)c(C(O)c2nc3cc(C#N)ccc3[nH]2)c2cc[nH]c12 (single isomer, unassigned; (-)) [3-B b) (−), (−)-2-((5-(difluoromethoxy)-7-methyl-1H-indol-4-yl)(hydroxy)methyl)-1H-benzo[d]imidazole-5-carbonitrile]	250 nM
Cc1cc(C)c2[nH]cc3c2c1C(O)(c1nc2cc(C#N)ccc2[nH]1)CC3 (single isomer, unassigned) [93-F b) (tr = 7.2 min), (+) or (−)-2-(5-hydroxy-6,8-dimethyl-1,3,4,5-tetrahydrobenzo[cd]indol-5-yl)-1H-benzo[d]imidazole-5-carbonitrile]	33800 nM
COc1cc(C)c2[nH]ccc2c1Cc1nc2ccc(C#N)cc2o1 [Example 20-H]	4370 nM
Cc1cc(C)c2[nH]ccc2c1Cc1nc2cc(C#N)c(F)cc2[nH]1 [Example 63-G]	5550 nM
Cc1cc(CC(C)C)c(C(O)c2nc3cc(C#N)ccc3[nH]2)c2cc[nH]c12 (single isomer, unassigned; (-)) [67-C b) (−), (−)-2-(hydroxy(5-(isobutyl)-7-methyl-1H-indol-4-yl)methyl)-1H-benzo[d]imidazole-5-carbonitrile]	6750 nM
COC(C)(c1nc2cc(C#N)ccc2[nH]1)c1c(C)cc(C)c2[nH]ccc12 (single isomer, unassigned; (-)) [84-B b) (−), (−)-2-(1-(5,7-dimethyl-1H-indol-4-yl)-1-methoxyethyl)-1H-benzo[d]imidazole-5-carbonitrile]	50 nM
CCOc1cc(C)c2[nH]ccc2c1C(C)(O)c1nc2cc(C#N)ccc2[nH]1 (single isomer, unassigned; (+)) [26-D b) (+), (+)-2-(1-(5-ethoxy-7-methyl-1H-indol-4-yl)-1-hydroxyethyl)-1H-benzo[d]imidazole-5-carbonitrile]	360 nM
Cc1cc(OC(F)F)c(C(NCCN)c2nc3cc(C#N)ccc3[nH]2)c2cc[nH]c12 (racemic) [3-B a) 2nd compound, (±)-2-(((2-aminoethyl)amino)(5-(difluoromethoxy)-7-methyl-1H-indol-4-yl)methyl)-1H-benzo[d]imidazole-5-carbonitrile]	2700 nM
Cc1cc(C)c2[nH]cc(Br)c2c1Cc1nc2cc(C#N)ccc2[nH]1 [Example 85, 2-((3-bromo-5,7-dimethyl-1H-indol-4-yl)methyl)-1H-benzo[d]imidazole-5-carbonitrile]	220 nM
CCc1cc(C)c(Cc2nc3cc(C#N)ccc3[nH]2)c2cc[nH]c12 [Example 111-E, 2-((7-Ethyl-5-methyl-1H-indol-4-yl)methyl)-1H-benzo[d]imidazole-5-carbonitrile]	22900 nM
Cc1cc(Cl)c(C(C)(O)c2nc3cc(C#N)ccc3[nH]2)c2cc[nH]c12 (single isomer, unassigned; (+)) [79-E b) (+), (+)-2-(1-(5-chloro-7-methyl-1H-indol-4-yl)-1-hydroxyethyl)-1H-benzo[d]imidazole-5-carbonitrile]	1120 nM
CCc1cc(C)c2[nH]ccc2c1C(N)(c1nc2cc(C#N)ccc2[nH]1)C(F)(F)F (single isomer, unassigned; (-)) [107-C b) (−), (−)-2-(1-amino-1-(5-ethyl-7-methyl-1H-indol-4-yl)-2,2,2-trifluoroethyl)-1H-benzo[d]imidazole-5-carbonitrile]	30 nM
Cc1cc(Br)c(C(C)(O)c2nc3cc(C#N)ccc3[nH]2)c2cc[nH]c12 (single isomer, unassigned) [79-F b) (tr = 3.8 min), (−) or (+)-2-(1-(5-bromo-7-methyl-1H-indol-4-yl)-1-hydroxyethyl)-1H-benzo[d]imidazole-5-carbonitrile]	270 nM
Cc1cc(S(C)(=O)=O)c(C(N)c2nc3cc(C#N)ccc3[nH]2)c2cc[nH]c12 (single isomer, unassigned) [18-D (+), 2-(amino(7-methyl-5-(methylsulfonyl)-1H-indol-4-yl)methyl)-1H-benzo[d]imidazole-5-carbonitrile]	1240 nM
